≈ marks a conversion by molar mass, not a printed value.
conditions: buffer; pH 7.4; 200.0 µM

SMILES | solubility kinetic [µg/mL]
O=C(OCC(=O)N1CCCC1)c1c[nH]c2ccccc12 | > 40.8
CCN1CCC(N(C)C2CCCCC2)CC1 | 24 (≈ 107 µM)
Cn1c(SCC(=O)N2CCCCCC2)nnc1-c1ccco1 | > 48.1
Cc1nc(-c2ccc(S(=O)(=O)NCc3ccccn3)s2)cs1 | > 52.7
COc1ccccc1NCC(=O)c1ccc(C)c(C)c1 | 2.6 (≈ 9.65 µM)
COc1ccccc1C(=O)Nn1c(C)nc2ccccc2c1=O | > 46.4
Cc1cccc(C(=O)O)c1NC(=O)Cc1cccc2ccccc12 | > 47.9
O=C(NN=Cc1ccc(O)cc1)c1ccccc1NS(=O)(=O)c1cccs1 | > 60.2
CCn1c(O)c(C=NCCN2CCOCC2)c(=O)n(CC)c1=S | > 51.1
CCNC(=O)NC(=O)C(C)OC(=O)c1cccn1C (stereo not given) | > 40.1
Cc1ccccc1NC(=O)C1C2CCCCC21 (stereo not given) | 3.4 (≈ 14.8 µM)
CCCCn1c(N)c(N(CC)C(=O)c2cccs2)c(=O)[nH]c1=O | 10.1 (≈ 30 µM)
N#CCCN(Cc1ccccc1)C(=O)c1cccs1 | > 40.6
CCN(CC)c1ccc(NC(=O)Nc2ccccc2)cc1 | 4.1 (≈ 14.5 µM)
CCOC(=O)Cc1csc(NC(=O)CN2CCN(c3ccccc3)CC2)n1 | 44.6 (≈ 115 µM)
C=CCSc1ncnc2c1oc1nc3c(cc12)COC(C)(C)C3 | 1.3 (≈ 3.97 µM)
COc1ccc(C)cc1S(=O)(=O)N1CCc2ccccc2C1 | 18.1 (≈ 57 µM)
O=C(COC(=O)/C=C/c1cccc(F)c1)NC1CC1 | > 39.5
Cc1cccc(C(=O)NCC(=O)N2CCCC2)c1 | > 36.9
Cc1cc(C(=O)O)ccc1N=Cc1c(O)ccc2ccccc12 | > 45.8

SMILES | solubility kinetic [µg/mL]
CN1C(=O)c2ccc(C(=O)NCc3ccccn3)cc2C1=O | > 44.3
Cc1nc(Nc2nc3ccccc3o2)nc(C)c1C | 15.8 (≈ 62.1 µM)
Cc1ccc(C(=O)Nc2ccncc2)c(C)c1 | > 33.9
CC(C)C(OC(=O)c1ccco1)C(=O)NC1CCCC1 (stereo not given) | > 41.9
O=C(CNC(=O)c1ccccc1Cl)NCCc1cccs1 | > 48.4
CCOc1ccc(C(=O)Nc2nc(C)c(C(=O)OC)s2)cc1 | < 0.3
CN(C)C(=S)NC(=O)C12CC3(C)CC(C)(CC(C)(C3)C1)C2 | 1 (≈ 3.24 µM)
O=c1c2sccc2[nH]c(=S)n1-c1ccccc1 | 38.5 (≈ 148 µM)
O=c1[nH]c(/C=C\c2cccc(Cl)c2)nc(O)c1[N+](=O)[O-] | > 44.1
Cc1ccc(N2CCN(c3ccc([N+](=O)[O-])cn3)CC2)c(C)c1 | 0.3 (≈ 0.96 µM)
CCNC(=O)c1ccccc1SCC(=O)Nc1ccc(F)cc1 | > 49.9
Cl.OC(CNCC#Cc1ccccc1)c1ccccc1 (stereo not given) | 35.9
CC(C)(C)NC(=O)NC(=O)CN1CCCCCCC1 | 21.2 (≈ 78.7 µM)
COc1ccc(CC(=O)NC2CC2)cc1OC | > 35.3
COc1cc2c(cc1OC)-c1cc(Nc3cccc(C)c3)nc(=O)n1CC2 | 2.5 (≈ 6.88 µM)
Cc1cc(S(=O)(=O)NCc2cccnc2)ccc1F | 33.7 (≈ 120 µM)
Cc1c(C(=O)O)sc2nc3n(c(=O)c12)CCC3 | > 37.5
Fc1cccc(Cl)c1/C=C/c1cnc2ccccc2n1 | < 0.3
Cc1ccccc1-c1noc(-c2ccccc2C(=O)NCC2CCCO2)n1 (stereo not given) | 49.6 (≈ 136 µM)
O=C(/C=C/c1ccc([N+](=O)[O-])cc1)OCC(=O)N1CCOCC1 | 10.1 (≈ 31.5 µM)

SMILES | solubility kinetic [µg/mL]
N#C/C(=C(/O)CO/N=C/c1ccccc1Cl)c1nc2ccccc2[nH]1 | < 0.2
Cc1ccc(NC(=O)c2nc3nccc(C)n3n2)c(C)c1 | > 42.2
CCCN1CCC(NC(=S)Nc2ccc([N+](=O)[O-])cc2)CC1 | > 48.4
C=C1C(C(=O)Nc2ccccc2)C1C(=O)Nc1ccccc1 (stereo not given) | < 0.3
CC(Cc1ccccc1)NC=O (stereo not given) | 24.4 (≈ 149 µM)
O=C(O)CCn1c(-c2ccccn2)nc2ccccc21 | > 40.1
COc1cccc(C(=O)NCCCNC(=O)c2cccnc2)c1 | > 47
COc1ccc2[nH]c(C(=O)NCCN3CCOCC3)cc2c1 | 31.6 (≈ 104 µM)
O=C(Nc1nccs1)c1ccc(Br)s1 | 5.6 (≈ 19.4 µM)
O=C(O)C1C2C=CC(C2)C1C(=O)Nc1cccc(Cl)c1 (stereo not given) | 42.8 (≈ 147 µM)
Cc1cccc(NC(=O)CNC(=O)c2ccc3nc[nH]c3c2)c1C | > 48.4
O=C(CN1C(=O)c2ccc([N+](=O)[O-])cc2C1=O)Nc1nccs1 | 26.2 (≈ 78.8 µM)
c1ccc(-c2cc(NCCN3CCCCC3)c3ccccc3n2)cc1 | > 49.7
O=C1CCC([N+](=O)[O-])C(c2ccccc2C(F)(F)F)N1 (stereo not given) | > 43.2
COC(=O)c1ccc(CN=C(NS(=O)(=O)c2ccccc2)c2ccccc2)cc1 | > 61.3
O=C(c1ccc(Cl)cc1)N1CCN(CCOc2ccccc2)CC1 | > 51.7
CCCCc1ccc(NC(=O)Nc2cnccn2)cc1 | 1.1 (≈ 4.07 µM)
Cc1ccc(S(=O)(=O)NC(=O)Nc2cc(C(C)(C)C)on2)cc1 | > 50.6
CC(NC(=O)C(C)(C)C)C(c1cccs1)N1CCOCC1 (stereo not given) | > 46.6
COc1ccc(C(=O)N[C@H](C(=O)NCCCSc2ccccc2)C(C)C)cc1 | 2.2 (≈ 5.49 µM)
